The target of assay [1] is T1, Protein cereblon/Baculoviral IAP repeat-containing protein 3 (Homo sapiens) (UniProt Q13489+Q96SW2). In words: Binding affinity to CRBN/cIAP2 in human HEK293T cells assessed as ternary complex formation at 1 uM measured after 6 hrs by immunoprecipitation analysis. It counts as cell-based.
In assay [2] the test system is MCF7. Briefly: Induction of apoptosis in human MCF7 cells assessed as increase in PARP cleavage at 0.1 uM measured after 18 hrs by western blot analysis. It counts as functional, cell-based. On the technique in general: A western blot detects proteins with antibodies after separation by electrophoresis.
In assay [3] the test system is MCF7. Briefly: Induction of apoptosis in human MCF7 cells assessed as increase in caspase 7 cleavage at 0.1 uM measured after 18 hrs by western blot analysis. It counts as functional, cell-based.
For assay [4], the target named is T2, Protein cereblon/E3 ubiquitin-protein ligase XIAP (Homo sapiens) (UniProt P98170+Q96SW2). In words: PROTAC activity at CRBN/XIAP in human MCF7 cells assessed as protein abundance at 1 uM measured after 4 hrs by TMT-labeling based LC-MS/MS analysis. Type of assay: cell-based.
Assay [5] addresses Protein cereblon-IAP (Homo sapiens) (UniProt P98170+Q13489+Q13490+Q96SW2). In words: PROTAC activity at CRBN/IAP in human MCF7 cells assessed as inhibition of TNFalpha-induced NFkappaB activation by measuring decrease in p38 phosphorylation at 0.1 uM pretreated for 2 hrs followed by stimulation with TNF-alpha for 3 mins by western blot analysis. The note with it: time 123.0 min. It counts as cell-based.

The target in assay [6] is T2, Protein cereblon/E3 ubiquitin-protein ligase XIAP (Homo sapiens). Briefly: PROTAC activity at CRBN/XIAP in human MCF7 cells assessed as induction of XIAP degradation at 1 uM measured after 18 hrs by western blot analysis. Type of assay: cell-based.
Assay [7] has as its target T1, Protein cereblon/Baculoviral IAP repeat-containing protein 3 (Homo sapiens). In words: PROTAC activity at CRBN/cIAP2 in human MCF7 cells assessed as induction of cIAP2 degradation at 1 uM measured after 18 hrs by western blot analysis. It counts as cell-based.
Assay [8] has as its system MCF7. Briefly: Inhibition of TNFalpha-induced vimentin protein expression in human MCF7 cells by western blot analysis. It counts as functional, cell-based.
Assay [9] has as its target Protein cereblon/Baculoviral IAP repeat-containing protein 2 (Homo sapiens) (UniProt Q13490+Q96SW2). In words: Binding affinity to CRBN/cIAP1 in human HEK293T cells assessed as ternary complex formation at 1 uM measured after 6 hrs by immunoprecipitation analysis. It counts as cell-based.
In assay [10] the target is Baculoviral IAP repeat-containing protein 2 (Homo sapiens) (UniProt Q13490). Briefly: Induction of cIAP1 degradation in human MCF7 cells at 0.1 to 10 uM measured after 18 hrs by western blot analysis. It counts as cell-based. As to conditions: dose 0.1-10 µM.
Assay [11] concerns the target T1, Protein cereblon/Baculoviral IAP repeat-containing protein 3 (Homo sapiens). In words: PROTAC activity at CRBN/cIAP2 in human MCF7 cells assessed as induction of cIAP2 degradation at 0.1 uM measured within 1 hr by western blot analysis. It counts as cell-based.
Assay [12] deals with MCF7. In words: Induction of apoptosis in human MCF7 cells assessed as increase in caspase 3/7 activity at 0.01 to 1 uM measured after 18 hrs by Caspase-Glo reagent based luminescence analysis. It counts as functional, cell-based. The note with it: dose 0.01-1 µM.
Assay [13] deals with T2, Protein cereblon/E3 ubiquitin-protein ligase XIAP (Homo sapiens). In words: PROTAC activity at CRBN/XIAP in human MCF7 cells assessed as induction of XIAP degradation at 0.1 uM measured after 18 hrs by western blot analysis. It counts as cell-based.
In assay [14] the target is T1, Protein cereblon/Baculoviral IAP repeat-containing protein 3 (Homo sapiens). Briefly: PROTAC activity at CRBN/cIAP2 in human MCF7 cells assessed as induction of cIAP2 degradation at 1 uM measured after 6 hrs in presence of proteasome inhibitor, MG132 by western blot analysis. It counts as cell-based.
Assay [15] concerns MCF7. In words: Induction of apoptosis in human MCF7 cells assessed as increase in PARP cleavage at 1 uM measured after 6 hrs in presence of TNF-alpha by western blot analysis. It counts as functional, cell-based.

Molecules are shown by their SMILES. The source made the active and inactive calls. No cut-off for these calls is given here. Bounds are passed on as bounds.

T1 sequence (Q13489 whole entry, looked up): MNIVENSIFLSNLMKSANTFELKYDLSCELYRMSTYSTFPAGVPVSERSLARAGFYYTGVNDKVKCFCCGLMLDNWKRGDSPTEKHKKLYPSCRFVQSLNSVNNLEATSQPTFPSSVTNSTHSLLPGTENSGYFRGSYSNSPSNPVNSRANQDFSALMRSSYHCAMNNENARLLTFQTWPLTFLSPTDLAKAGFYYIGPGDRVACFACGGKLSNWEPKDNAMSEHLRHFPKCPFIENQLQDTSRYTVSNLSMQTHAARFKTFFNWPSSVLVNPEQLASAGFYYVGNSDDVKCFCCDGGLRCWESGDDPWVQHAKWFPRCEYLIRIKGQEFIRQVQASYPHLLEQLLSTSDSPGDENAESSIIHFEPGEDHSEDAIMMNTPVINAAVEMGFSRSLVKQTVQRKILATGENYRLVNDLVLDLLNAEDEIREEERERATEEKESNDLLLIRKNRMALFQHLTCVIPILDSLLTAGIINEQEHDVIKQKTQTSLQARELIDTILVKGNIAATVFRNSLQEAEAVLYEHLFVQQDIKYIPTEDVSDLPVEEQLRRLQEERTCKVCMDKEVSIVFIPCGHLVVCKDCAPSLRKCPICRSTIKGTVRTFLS
T1 sequence (Q96SW2 whole entry, looked up): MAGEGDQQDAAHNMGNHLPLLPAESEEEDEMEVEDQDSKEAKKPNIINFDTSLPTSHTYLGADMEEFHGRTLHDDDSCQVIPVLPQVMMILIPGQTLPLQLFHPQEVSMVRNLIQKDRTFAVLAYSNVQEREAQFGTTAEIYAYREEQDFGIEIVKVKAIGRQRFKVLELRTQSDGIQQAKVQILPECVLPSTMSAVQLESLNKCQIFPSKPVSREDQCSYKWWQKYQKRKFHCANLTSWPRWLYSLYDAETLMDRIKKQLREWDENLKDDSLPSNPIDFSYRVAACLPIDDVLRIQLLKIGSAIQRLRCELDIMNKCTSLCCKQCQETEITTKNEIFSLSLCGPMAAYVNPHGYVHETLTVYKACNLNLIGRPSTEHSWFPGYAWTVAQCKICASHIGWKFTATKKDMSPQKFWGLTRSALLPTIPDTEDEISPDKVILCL
T2 sequence (P98170 whole entry, looked up): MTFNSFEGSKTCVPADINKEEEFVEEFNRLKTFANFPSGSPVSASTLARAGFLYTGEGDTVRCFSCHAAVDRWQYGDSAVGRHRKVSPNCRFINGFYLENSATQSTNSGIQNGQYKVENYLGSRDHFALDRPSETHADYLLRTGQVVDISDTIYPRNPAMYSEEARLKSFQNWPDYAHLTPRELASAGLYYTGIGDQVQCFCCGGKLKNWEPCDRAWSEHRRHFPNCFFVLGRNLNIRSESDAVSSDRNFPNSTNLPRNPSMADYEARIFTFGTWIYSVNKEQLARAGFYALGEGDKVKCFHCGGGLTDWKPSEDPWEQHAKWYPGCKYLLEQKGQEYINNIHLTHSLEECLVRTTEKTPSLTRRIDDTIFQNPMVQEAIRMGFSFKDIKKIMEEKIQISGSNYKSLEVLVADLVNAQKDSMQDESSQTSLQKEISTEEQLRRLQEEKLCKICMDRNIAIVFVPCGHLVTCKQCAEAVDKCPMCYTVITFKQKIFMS
T2 sequence (Q96SW2 whole entry, looked up): as the sequence (Q96SW2 whole entry, looked up) above
Protein cereblon-IAP (Homo sapiens), sequence (P98170 whole entry, looked up): as the sequence (P98170 whole entry, looked up) above
Protein cereblon-IAP (Homo sapiens), sequence (Q13489 whole entry, looked up): as the sequence (Q13489 whole entry, looked up) above
Protein cereblon-IAP (Homo sapiens), sequence (Q13490 whole entry, looked up): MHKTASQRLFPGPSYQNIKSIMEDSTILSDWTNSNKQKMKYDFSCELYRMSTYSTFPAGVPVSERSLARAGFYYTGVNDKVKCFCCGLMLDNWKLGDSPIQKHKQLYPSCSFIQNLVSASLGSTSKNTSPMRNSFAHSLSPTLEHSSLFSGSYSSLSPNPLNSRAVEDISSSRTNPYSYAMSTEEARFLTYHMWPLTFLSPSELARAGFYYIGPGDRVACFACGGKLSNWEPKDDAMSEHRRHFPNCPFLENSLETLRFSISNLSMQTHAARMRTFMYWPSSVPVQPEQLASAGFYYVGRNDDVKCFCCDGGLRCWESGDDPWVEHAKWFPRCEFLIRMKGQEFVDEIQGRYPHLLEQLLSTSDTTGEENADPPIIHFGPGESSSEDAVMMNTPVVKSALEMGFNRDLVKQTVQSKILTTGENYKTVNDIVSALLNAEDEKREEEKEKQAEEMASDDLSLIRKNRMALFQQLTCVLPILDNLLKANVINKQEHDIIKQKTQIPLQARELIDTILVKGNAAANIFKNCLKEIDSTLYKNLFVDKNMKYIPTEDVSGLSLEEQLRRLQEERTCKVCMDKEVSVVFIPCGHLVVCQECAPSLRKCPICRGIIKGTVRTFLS
Protein cereblon-IAP (Homo sapiens), sequence (Q96SW2 whole entry, looked up): as the sequence (Q96SW2 whole entry, looked up) above
Protein cereblon/Baculoviral IAP repeat-containing protein 2 (Homo sapiens), sequence (Q13490 whole entry, looked up): as the sequence (Q13490 whole entry, looked up) above
Protein cereblon/Baculoviral IAP repeat-containing protein 2 (Homo sapiens), sequence (Q96SW2 whole entry, looked up): as the sequence (Q96SW2 whole entry, looked up) above
Baculoviral IAP repeat-containing protein 2 (Homo sapiens), sequence (Q13490 whole entry): as the sequence (Q13490 whole entry, looked up) above

With `CN[C@@H](C)C(=O)N[C@H](C(=O)N1Cc2cc(OCCCCCCCCNC(=O)C3CN(c4ccc5c(c4)C(=O)N(C4CCC(=O)NC4=O)C5=O)C3)ccc2C[C@H]1C(=O)N[C@@H]1CCCc2ccccc21)C(C)(C)C` (stereo not given in full), the result (in assay [1]; in the assay on MCF7 [2]; in the assay on MCF7 [3]; in [5]; in assay [10]; with MCF7 [12]) was Active. The outcome in the assay on MCF7 [15] was Active. Moreover, the fold change (FC) in [4] is greater than 2. Besides, the Activity in assay [6] was 99%; in [7] it was 97%; in [11] it was greater than 90%; in assay [13] it was 99%. Moreover, in the assay on MCF7 [8], the inhibition result is “Active”. The outcome in [9] and in assay [14] was inactive.

Values taken from ChEMBL document CHEMBL5344409, “Discovery of pan-IAP degraders via a CRBN recruiting mechanism” (2023).
